Results: patent US11576873B2, “Compositions for the treatment of drug-resistant tumors and methods of use thereof” (THE CURATORS OF THE UNIVERSITY OF MISSOURI, priority 2017, dated 2023)

Assays:
Experiment in all cases: 72 h toxicity of erlotinib, cell viability / IC50 analysis
Format in all cases: cell-based
H820 cells = details: Homo sapiens, NCI-H820, H820 (del E746-E749 and T790M)
Method: (§1) FIG. 42A,B. FIG. 42A and 42B show 72 h toxicity of erlotinib in various NSCLC cells lines: (A) Cell viability plot and (B) IC50 analysis. Results were averaged from 3 independent experiments.
(§2) (A, C, E) Represent the cell viability plot and (B, D, F) represent the associated IC50 analysis.
(§3) The IC50 of erlotinib was investigated in multiple cell lines based on their AXL and FN14 expressions and EGFR/KRAS mutant status (FIG. 42). […] The independent and combined effects of AXL and FN14 siRNAs were also examined. siRNA and siRNA based constructs for treatment and studied variation in IC50 of erlotinib in multiples drug resistant cell lines were used.

H1975 = details: Homo sapiens, NCI-H1975; T790M mutant H1975, 72 h
Method: as §1, §3

HCC827 = HCC827 carrying E746-A750 deletion
Method: as §1, §3

A549 = system: A549
Method: as §1, §2, §3
Rho, et al., Cancer Res 2014; 74: 253-262. […] Srikar, et al., Sci Rep 2016; 6: 30245.

In the case of `C#Cc1cccc(Nc2ncnc3cc(OCCOC)c(OCCOC)cc23)c1` [erlotinib], the IC50 (H820 cells) is reported as greater than 10 µM, the IC50 (H1975) is reported as greater than 10 µM and the sensitivity to erlotinib (HCC827) is reported as “highly sensitive”. The “resensitization towards the drug” value (A549; A549, downregulating all three pathways (AXL, FN14, KRAS)) was “total resensitization” and the IC50 (A549; Homo sapiens, A549, 72 h, read-out: IC50 of erlotinib) was greater than 10 µM.
